The record followed here is patent US10882837B2, “Amide compounds and use thereof” (ALPHALA CO., LTD., priority 2017, dated 2021).

The target in one assay is GCGR (Homo sapiens, UniProt P47871). Kind of assay: I125-glucagon binding assay (competition, GCGR membrane fractions). Also on record: expressed in transfected cells; host or cells: CHO-K1; inhibition: dose or concentration left out as unconfirmed. The settings on record: for IC50: competition with I125-glucagon 0.0625 nM, membrane fractions from GCGR overexpressed CHO-K1 cells; for inhibition at 30 µM: compound at 30 μM; for inhibition at 30 µM / inhibition: read-out: percentage of inhibition (number in parenthesis in IC50 binding column). A digest of the protocol: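 Membranes from CHO-K1 cells overexpressing GCGR (7.5 µg/well) were preincubated 5 min with serially diluted compound in 50 mM Tris pH 7.4, 0.5% BSA. I125-glucagon was then added at 0.0625 nM final and incubated 30 min at 25 °C. After filtration, bound radioactivity was counted and IC50 derived by non-linear regression.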
Chain of GCGR (P47871 26-477, species assumed): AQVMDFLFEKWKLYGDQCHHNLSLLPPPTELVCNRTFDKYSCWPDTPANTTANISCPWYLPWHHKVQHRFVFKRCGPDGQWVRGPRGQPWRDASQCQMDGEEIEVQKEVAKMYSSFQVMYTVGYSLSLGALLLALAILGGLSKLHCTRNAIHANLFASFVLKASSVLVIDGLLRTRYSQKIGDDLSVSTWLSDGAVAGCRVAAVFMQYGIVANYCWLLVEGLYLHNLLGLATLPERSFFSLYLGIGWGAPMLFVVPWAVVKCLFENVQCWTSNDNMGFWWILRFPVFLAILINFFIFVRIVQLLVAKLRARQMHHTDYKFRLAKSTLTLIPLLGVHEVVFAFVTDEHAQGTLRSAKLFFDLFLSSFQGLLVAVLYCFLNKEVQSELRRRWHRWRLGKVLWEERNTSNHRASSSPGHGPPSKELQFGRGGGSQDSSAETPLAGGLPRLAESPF

The target of a further assay is T1, glucagon receptor (GCGR) (Homo sapiens, UniProt P47871).
T1 construct: expressed in transfected cells; host or cells: CHO-K1
T1 sequence (P47871 26-477, species assumed): as above
Kind of assay: Glucagon cAMP inhibition assay (Cisbio cAMP Dynamic 2 HTRF). Type of assay: cell-based. As to conditions: GCGR overexpressed CHO-K1 cells or human primary hepatocytes (not specified); glucagon at EC50. Put shortly: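 GCGR-overexpressing CHO-K1 cells or human primary hepatocytes in HBSS with 0.1% BSA and 800 nM IBMX, pre-incubated 30 min with compound (1% DMSO final), then stimulated 30 min at room temperature with glucagon at its EC50. cAMP measured by HTRF after 60 min lysis; IC50 from non-linear regression.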
(TR-FRET usually uses a lanthanide donor and a delayed reading to cut background.)

The structures appear in SMILES notation.

In the case of `CCOC(=O)CCNC(=O)c1ccc(OC(c2ccc(-c3nc4ccccc4s3)cc2)C(C)C)cc1` (stereo not drawn) [Compound 6-1, Ethyl 3-(4-(1-(4-(benzo[d]thiazol-2-yl)phenyl)-2-methylpropoxy)benzamido)propanoate], the figures for the IC50 at GCGR and against glucagon receptor (GCGR) were above 30000 nM and 85.6 nM, respectively.

As for `CCCC[C@H](Nc1ccc(C(=O)NCCC(=O)OCC)cc1)c1ccc(-c2nc(-c3ccccc3)no2)cc1` [Compound 5-7, ethyl (S)-3-(4-((1-(4-(3-phenyl-1,2,4-oxadiazol-5-yl)phenyl)pentyl)amino)benzamido)propanoate], at GCGR, the IC50 is 1020 nM and the inhibition at 30 µM amounted to 32%. This compound also had an IC50 against glucagon receptor (GCGR) of 59 nM.

Regarding `CCOC(=O)CCNC(=O)c1ccc(N[C@H](c2ccc(-c3nc4ccccc4s3)cc2)C(C)C)cc1` [Compound 4-25, ethyl (S)-3-(4-((1-(4-(benzo[d]thiazol-2-yl)phenyl)-2-methylpropyl)amino)benzamido)propanoate], the figures for the IC50 on GCGR and at glucagon receptor (GCGR) were 188 nM and 30.3 nM, respectively.

For `CCCCC(Nc1ccc(C(=O)NCCC(=O)O)cc1)c1ccc(-c2noc(-c3ccccc3)n2)cc1` (stereo not drawn) [Compound 2-8, 3-(4-((1-(4-(5-phenyl-1,2,4-oxadiazol-3-yl)phenyl)pentyl)amino)benzamido)propanoic acid], the IC50 on GCGR stood at 70 nM; against glucagon receptor (GCGR), 934 nM.

Regarding `CC(C)CC(Nc1ccc(C(=O)NCCC(=O)O)cc1)c1ccc(-c2nnc(C(C)(C)C)o2)cc1` (stereo not drawn) [Compound 1-12], the IC50 at GCGR worked out at 455 nM; at glucagon receptor (GCGR), 6710 nM.

`CCOC(=O)CCNC(=O)c1ccc(C(Nc2ccc(-c3nnc(-c4ccccc4)o3)cc2)C(C)CC)cc1` (stereo not drawn) [Compound 3-5, ethyl 3-(4-(2-methyl-1-((4-(5-phenyl-1,3,4-oxadiazol-2-yl)phenyl)amino)butyl)benzamido)propanoate]: the half-maximal inhibitory concentration (IC50) at GCGR came to 963 nM; at glucagon receptor (GCGR), 311 nM.

For `CCCCC(Nc1ccc(C(=O)NCCC(=O)O)cc1)c1ccc(-c2nnc(C(F)(F)F)o2)cc1` (stereo not drawn) [Compound 1-14, 3-(4-((1-(4-(5-(trifluoromethyl)-1,3,4-oxadiazol-2-yl)phenyl)pentyl)amino)benzamido)propanoic acid], the IC50 on GCGR was 379 nM; against glucagon receptor (GCGR) it was 3450 nM.

As to `CCCC[C@H](Nc1ccc(C(=O)NCCC(=O)O)cc1)c1ccc(-c2nc(-c3ccccc3)no2)cc1` [Compound 5-8, (S)-3-(4-((1-(4-(3-phenyl-1,2,4-oxadiazol-5-yl)phenyl)pentyl)amino)benzamido)propanoic acid], the IC50 was 14 nM at GCGR and 202 nM at glucagon receptor (GCGR).

Take `CCC(C)[C@@H](Nc1ccc(C(=O)NCCC(=O)O)cc1)c1ccc(-c2nc3ccccc3o2)cc1` (stereo partly drawn) [Compound 4-22, 3-(4-(((1R)-1-(4-(benzo[d]oxazol-2-yl)phenyl)-2-methylbutyl)amino)benzamido)propanoic acid]: the concentration for half-maximal inhibition (IC50) on GCGR amounted to 60 nM; against glucagon receptor (GCGR) it was 899 nM.

As for `CCOC(=O)CCNC(=O)c1ccc(NC(CC(C)C)c2ccc(-c3noc(-c4ccccc4)n3)cc2)cc1` (stereo not drawn) [Compound 2-9, ethyl 3-(4-((3-methyl-1-(4-(5-phenyl-1,2,4-oxadiazol-3-yl)phenyl)butyl)amino)benzamido)propanoate], on GCGR, the IC50 was determined as 1490 nM and the inhibition was 31%. The compound further yielded an IC50 at glucagon receptor (GCGR) of 105 nM.

`CC(C)C[C@H](Nc1ccc(C(=O)NCCC(=O)O)cc1)c1ccc(-c2nc(-c3ccccc3)no2)cc1` [Compound 5-2, (S)-3-(4-((3-methyl-1-(4-(3-phenyl-1,2,4-oxadiazol-5-yl)phenyl)butyl)amino)benzamido)propanoic acid]: the half-maximal inhibitory concentration (IC50) was found to be 20 nM at GCGR and 211 nM on glucagon receptor (GCGR).

Turning to `CCOC(=O)CCNC(=O)c1ccc(NC(c2ccc(-c3nnc(-c4ccc(F)cc4)o3)cc2)C(C)C)cc1` (stereo not drawn) [Compound 1-17], on GCGR, the IC50 worked out at 3510 nM and the inhibition at 30 µM was determined as 53%. Inhibition on glucagon receptor (GCGR) was half-maximal at 322 nM (IC50).

As to `CCC(C)C(Nc1ccc(C(=O)NCCC(=O)O)cc1)c1ccc(-c2nnc(C(F)(F)F)o2)cc1` (stereo not drawn) [Compound 1-32], the IC50 on GCGR worked out at 885 nM; against glucagon receptor (GCGR), 3480 nM.

As to `CCCC[C@H](Nc1ccc(C(=O)NCCC(=O)O)cc1)c1ccc(-c2noc(C(F)(F)F)n2)cc1` [Compound 2-47, (S)-3-(4-((1-(4-(5-(trifluoromethyl)-1,2,4-oxadiazol-3-yl)phenyl)pentyl)amino)benzamido)propanoic acid], the IC50 on GCGR was found to be 254 nM; against glucagon receptor (GCGR) it was 428 nM.

As to `COC(=O)CCNC(=O)c1ccc(N[C@H](c2ccc(-c3nnc(-c4ccccc4)o3)cc2)C(C)C)cc1` [Compound 1-63, methyl (S)-3-(4-((2-methyl-1-(4-(5-phenyl-1,3,4-oxadiazol-2-yl)phenyl)propyl)amino)benzamido)propanoate], the IC50 at GCGR stood at 1530 nM; at glucagon receptor (GCGR), 28 nM.

In the case of `CC(C)[C@H](Nc1ccc(C(=O)NCCS(=O)(=O)O)cc1)c1ccc(-c2nnc(-c3ccccc3)o2)cc1` [Compound 1-64, (S)-2-(4-((2-methyl-1-(4-(5-phenyl-1,3,4-oxadiazol-2-yl)phenyl)propyl)amino)benzamido)ethane-1-sulfonic acid], the IC50 on GCGR was 101 nM; at glucagon receptor (GCGR) it was above 30000 nM.

Regarding `CCC(C)[C@H](Nc1ccc(C(=O)NCCC(=O)O)cc1)c1ccc(-c2nc(-c3ccccc3)no2)cc1` (stereo partly drawn) [Compound 5-6, 3-(4-(((1S)-2-methyl-1-(4-(3-phenyl-1,2,4-oxadiazol-5-yl)phenyl)butyl)amino)benzamido)propanoic acid], the IC50 at GCGR turned out to be 13.1 nM; on glucagon receptor (GCGR) it was 239 nM.

`CCCCC(Nc1ccc(C(=O)NCCC(=O)OCC)cc1)c1ccc(-c2noc(-c3ccccc3)n2)cc1` (stereo not drawn) [Compound 2-7, ethyl 3-(4-((1-(4-(5-phenyl-1,2,4-oxadiazol-3-yl)phenyl)pentyl)amino)benzamido)propanoate]: on GCGR, the IC50 amounted to 1210 nM and the inhibition worked out at 27%. For the same compound, the IC50 against glucagon receptor (GCGR) stood at 49 nM.

As to `CCCC(Nc1ccc(C(=O)NCCC(=O)O)cc1)c1ccc(-c2nnc(C(F)(F)F)o2)cc1` (stereo not drawn) [Compound 1-8, 3-(4-((1-(4-(5-(Trifluoromethyl)-1,3,4-oxadiazol-2-yl)phenyl)butyl)amino)benzamido)propanoic acid], the figures for the IC50 on GCGR and against glucagon receptor (GCGR) were 651 nM and above 30000 nM, respectively.

Consider `CCCCC(Nc1ccc(C(=O)NCCC(=O)O)cc1)c1ccc(-c2nnc(C(C)(C)C)o2)cc1` (stereo not drawn) [Compound 1-20, 3-(4-((1-(4-(5-(tert-butyl)-1,3,4-oxadiazol-2-yl)phenyl)pentyl)amino)benzamido)propanoic acid], for which the figures for the IC50 at GCGR and against glucagon receptor (GCGR) were 562 nM and 15200 nM, respectively.

Turning to `CCOC(=O)CCNC(=O)c1ccc(C(Oc2ccc(-c3nc4ccccc4o3)cc2)C(C)C)cc1` (stereo not drawn) [Compound 7-1, Ethyl 3-(4-(1-(4-(benzo[d]oxazol-2-yl)phenoxy)-2-methylpropyl)benzamido)propanoate], the IC50 at GCGR is above 30000 nM; at glucagon receptor (GCGR), 487 nM.

As to `CCCC[C@@H](Nc1ccc(C(=O)NCCC(=O)O)cc1)c1ccc(-c2noc(C(F)(F)F)n2)cc1` [Compound 2-48, (R)-3-(4-((1-(4-(5-(trifluoromethyl)-1,2,4-oxadiazol-3-yl)phenyl)pentyl)amino)benzamido)propanoic acid], the figures for the IC50 on GCGR and against glucagon receptor (GCGR) were 1180 nM and 1570 nM, respectively.

What is called IC50 is the point on the concentration scale where inhibition reaches its midpoint. For orientation: inhibition means the relative decrease from the control value, in per cent.
